The text below walks through data of ChEMBL document CHEMBL1201862, “PubChem BioAssay data set” (2004).

Calls of active or inactive are those of the source.

Test [1] concerns the target T1, Replicative DNA helicase DnaB (Mycobacterium tuberculosis, UniProt P9WMR3).
T1 sequence (P9WMR3 whole entry): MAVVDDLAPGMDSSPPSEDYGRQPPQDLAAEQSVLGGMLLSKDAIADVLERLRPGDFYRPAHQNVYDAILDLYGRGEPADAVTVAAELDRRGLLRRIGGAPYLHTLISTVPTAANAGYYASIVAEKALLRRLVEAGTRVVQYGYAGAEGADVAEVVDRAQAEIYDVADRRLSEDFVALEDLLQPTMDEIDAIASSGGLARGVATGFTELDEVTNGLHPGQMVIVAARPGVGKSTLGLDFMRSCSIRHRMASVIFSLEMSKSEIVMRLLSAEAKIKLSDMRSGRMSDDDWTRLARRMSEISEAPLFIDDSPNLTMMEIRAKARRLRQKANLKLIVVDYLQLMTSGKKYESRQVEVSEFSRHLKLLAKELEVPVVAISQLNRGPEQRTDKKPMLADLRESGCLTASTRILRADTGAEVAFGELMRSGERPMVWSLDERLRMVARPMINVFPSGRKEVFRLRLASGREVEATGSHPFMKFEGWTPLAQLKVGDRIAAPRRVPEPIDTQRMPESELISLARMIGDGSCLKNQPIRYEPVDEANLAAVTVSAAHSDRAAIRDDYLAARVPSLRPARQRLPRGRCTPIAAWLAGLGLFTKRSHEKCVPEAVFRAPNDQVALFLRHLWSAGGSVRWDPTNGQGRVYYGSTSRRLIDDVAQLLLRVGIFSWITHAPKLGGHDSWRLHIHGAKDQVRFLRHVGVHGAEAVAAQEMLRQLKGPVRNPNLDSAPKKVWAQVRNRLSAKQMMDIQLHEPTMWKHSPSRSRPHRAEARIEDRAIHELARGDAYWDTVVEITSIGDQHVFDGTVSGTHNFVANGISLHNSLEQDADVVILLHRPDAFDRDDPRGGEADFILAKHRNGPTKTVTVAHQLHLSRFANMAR
The experiment in a line: DnaB intein splicing inhibitors, dose response, biochemical, cell-free fluorescence (AID 449749). It is filed as functional.

For test [2], the target named is T2, Leucine aminopeptidase (Plasmodium falciparum 3D7, UniProt Q8IL11).
T2 sequence (Q8IL11 whole entry): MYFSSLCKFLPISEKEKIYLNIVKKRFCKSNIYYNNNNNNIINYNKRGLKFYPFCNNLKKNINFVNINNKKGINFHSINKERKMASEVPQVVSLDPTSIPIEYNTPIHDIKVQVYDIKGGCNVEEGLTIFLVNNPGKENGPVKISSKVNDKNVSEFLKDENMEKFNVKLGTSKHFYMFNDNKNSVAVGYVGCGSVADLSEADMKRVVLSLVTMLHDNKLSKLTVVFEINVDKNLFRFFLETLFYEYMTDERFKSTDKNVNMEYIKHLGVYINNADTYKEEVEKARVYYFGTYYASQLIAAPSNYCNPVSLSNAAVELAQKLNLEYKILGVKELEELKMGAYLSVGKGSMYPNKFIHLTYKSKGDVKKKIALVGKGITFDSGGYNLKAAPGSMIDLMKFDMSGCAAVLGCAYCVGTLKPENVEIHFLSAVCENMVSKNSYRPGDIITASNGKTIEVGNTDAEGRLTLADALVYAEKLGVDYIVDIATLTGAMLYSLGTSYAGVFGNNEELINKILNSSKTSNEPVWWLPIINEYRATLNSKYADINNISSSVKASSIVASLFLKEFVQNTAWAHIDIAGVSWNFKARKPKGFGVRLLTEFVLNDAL
The experiment in a line: P. falciparum M17LAP inhibitors, primary screen, biochemical, fluorogenic H-Leu-NHMec substrate, 1536-well (AID 1619). It counts as functional.

Test [3] has as its target Luciferin 4-monooxygenase (Photinus pyralis, UniProt P08659). The experiment in a line: Counter Screen for Luciferase-based Assay Positives. [Related pubchem assays: 620, 618, 411 ]. Background: The purpose of a counterscreen is to sort out artefacts and off-target activity.
Test [4] has as its system HT-1080. Nature of the test: cytotoxicity in HT1080 fibrosarcoma cells, cell-based, fluorescence readout (AID 620). To be noted: Homo sapiens. It counts as functional.
Test [5] has as its target T3, Caspase-3 (Homo sapiens, UniProt P42574).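 Also: Dose-response selectivity test against caspase-3 for candidate inhibitors of sentrin-specific proteases (SENPs).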
T3 sequence (P42574 whole entry): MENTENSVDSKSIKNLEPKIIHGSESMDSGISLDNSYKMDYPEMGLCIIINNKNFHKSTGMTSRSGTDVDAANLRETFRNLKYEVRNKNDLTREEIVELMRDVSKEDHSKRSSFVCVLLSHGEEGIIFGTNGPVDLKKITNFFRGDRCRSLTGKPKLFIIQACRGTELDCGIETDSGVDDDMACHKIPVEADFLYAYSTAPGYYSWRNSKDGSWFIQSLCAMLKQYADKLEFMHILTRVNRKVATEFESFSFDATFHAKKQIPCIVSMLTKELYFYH
It is filed as functional.

Test [6] deals with T4, Microphthalmia-associated transcription factor (Homo sapiens, UniProt O75030).
T4 sequence (O75030 whole entry): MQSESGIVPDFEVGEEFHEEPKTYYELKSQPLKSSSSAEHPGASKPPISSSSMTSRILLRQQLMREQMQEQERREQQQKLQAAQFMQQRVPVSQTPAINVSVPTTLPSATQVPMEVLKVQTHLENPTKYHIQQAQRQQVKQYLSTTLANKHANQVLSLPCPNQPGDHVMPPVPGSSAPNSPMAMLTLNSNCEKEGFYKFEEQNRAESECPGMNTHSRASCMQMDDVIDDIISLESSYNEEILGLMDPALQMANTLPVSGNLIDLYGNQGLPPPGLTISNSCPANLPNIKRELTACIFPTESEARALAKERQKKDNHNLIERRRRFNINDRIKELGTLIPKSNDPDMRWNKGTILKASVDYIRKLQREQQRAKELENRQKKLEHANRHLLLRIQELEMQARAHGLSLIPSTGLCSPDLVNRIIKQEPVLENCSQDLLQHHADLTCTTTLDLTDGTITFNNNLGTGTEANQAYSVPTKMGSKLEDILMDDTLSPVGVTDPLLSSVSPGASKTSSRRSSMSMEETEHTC
The experiment in a line: TRPM1 promoter luciferase signal decrease, dose response, MITF inhibitor project, cell-based, SK-MEL-5, cherry-picked, set 3 (AID 493073).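 Also: SK-MEL-5 melanoma cells with luciferase driven by the MITF target TRPM1 promoter.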 It counts as functional.

Test [7] has as its system A-375. Nature of the test: MITF: Counter assay: A375 proliferation Measured in Cell-Based System Using Plate Reader - 2084-03_Inhibitor_Dose_DryPowder_Activity. [Related pubchem assays (depositor defined):AID488944]. It counts as functional. The settings on record: Homo sapiens.

Luciferin 4-monooxygenase, sequence (P08659 whole entry): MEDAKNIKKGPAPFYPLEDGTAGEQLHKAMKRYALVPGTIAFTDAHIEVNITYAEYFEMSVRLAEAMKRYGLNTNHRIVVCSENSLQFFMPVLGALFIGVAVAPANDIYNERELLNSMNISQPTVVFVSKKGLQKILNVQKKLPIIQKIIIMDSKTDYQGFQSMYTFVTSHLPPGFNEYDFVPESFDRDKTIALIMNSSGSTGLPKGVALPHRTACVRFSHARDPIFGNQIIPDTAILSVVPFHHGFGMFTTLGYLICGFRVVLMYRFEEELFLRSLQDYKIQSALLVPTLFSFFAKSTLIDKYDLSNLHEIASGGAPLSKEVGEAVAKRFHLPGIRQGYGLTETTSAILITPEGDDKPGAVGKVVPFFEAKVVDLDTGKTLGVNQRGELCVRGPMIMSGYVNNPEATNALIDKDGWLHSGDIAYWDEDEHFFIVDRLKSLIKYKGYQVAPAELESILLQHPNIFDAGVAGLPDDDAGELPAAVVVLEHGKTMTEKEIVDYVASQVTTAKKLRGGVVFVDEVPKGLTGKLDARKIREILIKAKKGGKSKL

`COc1ccc(C(N)c2nccc3cc(OC)c(OC)cc23)cc1OC` (configuration not stated): the AC50 in test [1] is > 380 µM (inactive).

Turning to `N#Cc1c(NC(=O)CSc2nc[nH]n2)sc2c1CCCCC2`, the IC50 in test [2] is < 1 µM (active); in test [5], 45.2 µM (active). Further, the figures for the EC50 in test [3] and in test [4] were 50.9 µM (active) and > 50 µM (not active), respectively. Moreover, the values for the AC50 in test [6] and in test [7] were 0.371 µM (active) and > 35 µM (active), respectively.

As usually defined, the AC50 is the concentration giving half of the maximal activity seen. In general, IC50 refers to the midpoint of a concentration-inhibition curve. The term EC50 denotes the midpoint of the concentration-response curve.
